The assay relates to antibody R674. In words: Radioimmune assay: displacement of 3H-Compound A' or 3H-Compound B' from antibody R674. In kind it is binding, rabbit. As to conditions: up to 10 μM (the highest concentration tested). For orientation: Loss of bound radioactivity is the signal in a displacement assay; it reports binding, not function.

Protocol: Non-antibody-bound radioactive isotope was removed from the reaction mixture by its absorption onto dextran-coated activated charcoal. […] The activated charcoal was then suspended to 3% (w/v) in PBS dextran and allowed to stand overnight, washed once again in PBS dextran and resuspended to 3% (w/v) in PBS dextran and stored at 4° C. Immediately before use in the assay, the dextran-coated activated charcoal was diluted 10-fold in DULBECCO's PBS and 1 ml was added to each assay tube. […] The supernatant fluid was decanted into 9 ml of AQUASOL-2 scintillation fluid and radioactivity counted in a beta-counter. Each assay contains charcoal free controls, to which 1 ml PBS was added, for determination of total counts (BO), and antibody free controls for determination of non-specific binding. Percent specific binding was determined by subtracting the value for non-specific binding from the value of total antiserum binding and then dividing by the total radioactivity added.
The antiserum was diluted in PET/GEL buffer (1:12,000 final dilution in the 200 μl assay volume) as described above so that it binds 20-30% of the total radioactivity added. The same diluted stock was then used for all assay tubes with-in the same assay. […] The assay was set up on a competition basis. The unlabeled reactivation product competed with the tritiated reactivation product for binding to the antibody R674. […]

With `NC(N)=O` [Urea], the “effect on binding to antibody R674” value is “without effect”.
With `N=C(N)NCCC[C@H](N)C(=O)O` [arginine], the “effect on binding to antibody R674” value is reported as “without effect”.

The values above are taken from patent publication US5276139A, “Haptens useful in evaluating inhibition of PNN elastase by N-substituted azetidinones” (Merck & Co., Inc., priority 1991, dated 1994).
